Measurements: PMC2806525, “Proteinase-activated receptor-2 mediated inhibition of TNFα-stimulated JNK activation — A novel paradigm for Gq/11 linked GPCRs” (Cellular Signalling, 2010)
Entries after “also recorded” stand apart in the source; their conditions may differ. Residues, ends and D or L forms follow the SMILES beside them.

How the values were obtained:
[1] = system: PKC; assay: TNFα-stimulated JNK activity, PKC activator / PKC inhibitor, PAR2 NCTC2544 cells; type: cell-based, human
Protocol: (§1) Human skin epithelial cells NCTC2544 were maintained in M199 medium with Earl's salt supplement, 10% (v/v) foetal calf serum, L-glutamine (27 µg/ml), penicillin (250 U/ml), and streptomycin (25 mg/ml). NCTC2544 cells stably expressing human PAR2 (clone G) were maintained in complete M199 medium containing 400 μg/ml of Geneticin for selection pressure and passaged using Versene (2% EDTA/PBS). EAhy-926 cells were produced by hybridizing human umbilical vein endothelial cells (HUVECs) with the epithelial cell line A549 [27] and maintained in Dulbecco's Modified Eagle's Medium (DMEM) supplemented with 10% foetal calf serum (FCS), hypoxanthine/aminopterin/thymidine (HAT supplement), penicillin (250 U/ml) and streptomycin (25 mg/ml), and cells were passaged using Versene.
To measure JNK activity, cells were stimulated as appropriate and the reaction terminated by rapid aspiration and the addition of ice-cold PBS. The cells were solubilised in 20 mM HEPES buffer, pH 7.7, containing 50 mM NaCl, 0.1 mM EDTA, 0.1 mM Na3VO4, 0.1 mM PMSF, 10 mg/ml aprotinin, 10 mg/ml leupeptin, and 1% (w/v) Triton X-100. Lysates were clarified by centrifugation for 5 min at 13,000 rpm and equal amounts of protein were incubated with 20 μg of GST-c-Jun-(5–89) immobilized on glutathione-Sepharose at 4 °C for 3 h. Beads were then washed three times in solubilisation buffer and twice in 25 mM HEPES buffer, pH 7.6, containing 20 mM β-glycerophosphate, 0.1 mM NaV3O4, and 2 mM dithiothreitol. Precipitates were then incubated with the same buffer containing 25 μM/0.5 μCi of ATP/[γ-^32P] ATP in a final volume of 30 µl at 30 °C for 30 min. The reactions were terminated by the addition of 4× SDS-sample buffer and aliquots of each sample subjected to electrophoresis on 11% SDS-polyacrylamide gel electrophoresis. Phosphorylation of GST-c-Jun was then determined by autoradiography.
Where experimental data is shown as a blot, this represents one of at least 3 experiments and data represents the mean ± s.e.m. Statistical analysis was by one-way ANOVA with Dunnett's post test (*P < 0.05, **P < 0.01).
Fig. 5 Pharmacological blockade of protein kinase C reverses PAR2 mediated inhibition of TNFα-stimulated JNK activation. PAR2 expressing NCTC2544 cells (clone G) were pre-incubated with increasing concentrations of GF109203X (GFX) for 30 min then incubated for a further 30 min with 100 nM PMA (Panel A) or 30 nM trypsin (Panel B) prior to stimulation for a further 30 min with TNFα(+) (10 ng/ml). Samples were assessed for JNK activity (Panels A and B) or phospho-JNK levels (Panel D) as outlined in the Methods section. Gels from JNK activity assays were quantified by densitometry (Panel C). Each value represents the mean ± s.e.m from at least 4 experiments. ⁎⁎P < 0.01 compared to TNFα and trypsin stimulated.

[2] = system: PKC; assay: TNFα-stimulated JNK phosphorylation, PKC activator / PKC inhibitor, PAR2 NCTC2544 cells; type: cell-based, human; details: GF109203X 10 μM; trypsin or SLIGKV-OH; TNFα 10 ng/ml 30 min
Protocol: as §1
(§2) Proteins were separated by 10% SDS–PAGE and transferred onto nitrocellulose. The membranes were blocked for non-specific binding for 2 h in 2% BSA (w/v) diluted in NATT buffer (50 mM Tris–HCl, 150 mM NaCl, 0.2% (v/v) Tween-20). […]
Fig. 5 Pharmacological blockade of protein kinase C reverses PAR2 mediated inhibition of TNFα-stimulated JNK activation. […] Samples were assessed for JNK activity (Panels A and B) or phospho-JNK levels (Panel D) as outlined in the Methods section. Gels from JNK activity assays were quantified by densitometry (Panel C). […]

[3] = system: TNFR1/TRADD; assay: TNFR1/TRADD complex formation (TNFR1 immuno-precipitation, TRADD immuno-blot), PAR2 expressing cells; type: cell-based, human; details: TNFα 10 ng/ml 30 min
Protocol: as §1
Proteins were separated by 10% SDS–PAGE and transferred onto nitrocellulose. The membranes were blocked for non-specific binding for 2 h in 2% BSA (w/v) diluted in NATT buffer (50 mM Tris–HCl, 150 mM NaCl, 0.2% (v/v) Tween-20). The blots were then incubated overnight with 50 ng/ml primary antibody diluted in 0.2% BSA (w/v) in NATT buffer. The blots were washed with NATT buffer for 90 min and incubated with HRP-conjugated secondary antibody (20 ng/ml in 0.2% BSA (w/v) diluted in NATT buffer) for 2 h. After a further 90 min wash, the blots were subjected to ECL reagent and exposed to Kodak X-ray film.
(§3) For immuno-precipitation of TNFR1, equal amounts of pre-cleared cell lysates were incubated in Tris–HCl buffer, pH 7.4, containing 50 mM NaCl, 1 mM EDTA, 1 mM EGTA, 1% (w/v) Triton X-100, and 0.5% (w/v) Nonidet P-40, with 2 μg TNFR1 antibody, pre-coupled to protein G, for 3 h. Lysates were recovered by sequential washes in solubilisation buffer and in the same buffer lacking detergents. Precipitates were assessed for TRADD or RIP content using Western blotting.
Fig. 7 PAR2 mediated TNFR1 adapter protein disruption in PAR2 expressing cells. In Panel A, cells were pre-treated with peptide (100 μM) or vehicle prior to stimulation with TNFα (10 ng/ml) for 30 min. Lysates were immuno-precipitated for TNFR1 and immuno-blotted for TRADD and/or RIP, as outlined in the Methods section. In Panel B cells were pre-treated with 100 nM YM254890 or 3 μM GF109203X for 30 min prior to pre-treatment with peptide (100 μM), for 30 min, then incubated for a further 30 min with TNFα (10 ng/ml). TNFR1 immuno-precipitates were immuno-blotted for TRADD. Each gel is representative of at least three experiments.

[4] = system: PKC isoforms; details: cited from earlier work
Text: We then examined the potential signalling pathways which could be mediating the inhibitory effects of PAR2. PAR2 is coupled to a number of signalling pathways via G-protein dependent and independent mechanisms. […] Therefore, we tested the effect of the PKC inhibitor GF109203X on PAR2 mediated inhibition of JNK activity and phosphorylation. ... || We then sought to investigate the possible mechanisms by which PAR2 mediated inhibition of JNK might occur. […] This is typical of a number of keratinocyte cell type ...

[5] = target: T1, human PAR2 (Homo sapiens, UniProt P55085); assay: TNFα-stimulated JNK activity (in vitro c-Jun phosphorylation), PAR2 agonist pre-incubation, PAR2 NCTC2544 cells (clone G); type: cell-based
T1 construct: expressed in transfected cells
T1 sequence (P55085 26-397): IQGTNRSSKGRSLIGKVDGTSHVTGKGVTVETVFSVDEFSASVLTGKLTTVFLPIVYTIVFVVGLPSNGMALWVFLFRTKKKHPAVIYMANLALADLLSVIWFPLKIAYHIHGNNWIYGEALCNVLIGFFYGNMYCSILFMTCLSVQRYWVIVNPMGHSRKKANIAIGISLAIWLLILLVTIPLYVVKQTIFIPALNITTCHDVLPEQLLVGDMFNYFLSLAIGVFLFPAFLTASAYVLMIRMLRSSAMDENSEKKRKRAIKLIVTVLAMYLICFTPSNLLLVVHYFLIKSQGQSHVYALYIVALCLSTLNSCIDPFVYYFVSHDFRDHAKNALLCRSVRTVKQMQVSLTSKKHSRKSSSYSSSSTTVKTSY
Protocol: as §1
To measure JNK activity, cells were stimulated as appropriate and the reaction terminated by rapid aspiration and the addition of ice-cold PBS. […] Phosphorylation of GST-c-Jun was then determined by autoradiography. […]
(§4) Fig. 1 PAR2 activation mediates inhibition of TNFα-stimulated JNK activity and phosphorylation in PAR2 NCTC2544 cells. […] Samples were assessed for JNK activity (Panel A) or phospho-JNK levels (Panel C) as outlined in the Methods section. Gels from JNK assays were quantified (Panel B). Each value represents the mean ± s.e.m from at least 4 experiments and data was quantified by densitometry. ⁎P < 0.05, ⁎⁎P < 0.01 compared to TNFα alone.
(§5) Fig. 4 Concentration response effects of PAR2 peptides for activation of JNK and inhibition of TNFα-stimulated JNK. PAR2 expressing NCTC2544 cells (clone G) were incubated with increasing concentrations of SLIGKV-OH or 2f-LIGKV-OH for 30 min and assayed for JNK activity (Panel B) or stimulated for a further 30 min with TNFα (+) before JNK activity was assessed (Panel A). Samples were assessed for JNK activity as outlined in the Methods section. Gels from JNK assays were quantified (Panel C). Each value represents the mean ± s.e.m from at least 4 experiments and data was quantified by densitometry.

[6] = target: T1, human PAR2; assay: TNFα-stimulated JNK phosphorylation (Western blot), PAR2 NCTC2544 cells (clone G); type: cell-based; details: pre-incubation 30 min, TNFα 10 ng/ml 30 min
Protocol: as §1
(§6) Proteins were separated by 10% SDS–PAGE and transferred onto nitrocellulose. […]
as §4

[7] = target: T1, human PAR2; details: ref [17]; cited from earlier work
Text: (§7) Thus, we can discern two agonist-mediated directed events which relate to the activation of JNK. This type of m ...

[8] = system: β2; details: ref [34]; cited from earlier work
Text: as §7

[9] = system: β2; details: ref [34]; cited from earlier work; remark: listed apart in the source
[10] = system: TNFR1/RIP; assay: TNFR1/RIP complex formation (TNFR1 immuno-precipitation, RIP immuno-blot), PAR2 expressing cells; type: cell-based, human; details: TNFα 10 ng/ml 30 min, versus basal
Protocol: as §1, §2
as §3, with “Lysates were recovered by sequential washes in solubilisation buffer and in the same buffer lacking detergents.” left out, “blotting. […]” for “blotting.”

[11] = system: ERK; assay: ERK activation, PAR2 NCTC2544 cells; type: cell-based, human; details: response to TNFα; data not shown
Protocol: as §1

[12] = system: JNK; assay: TNFα-stimulated JNK phosphorylation and activity, PAR2 NCTC2544 cells; type: cell-based, human; details: TNFα 10 ng/ml 30 min, untreated cells
Protocol: as §1, §6
To measure JNK activity, cells were stimulated as appropriate and the reaction terminated by rapid aspiration and the addition of ice-cold PBS. […] Phosphorylation of GST-c-Jun was then determined by autoradiography.
Fig. 6 Gq/11 is essential for PAR2 mediated inhibition of JNK activation by TNFα. […] Samples were assessed for phospho-JNK levels (Panels A and D) or JNK activity (Panel B) as outlined in the Methods section. Gels from JNK activity assays were quantified by densitometry (Panel C). […]

[13] = target: T1, human PAR2; assay: JNK activity, agent alone, PAR2 NCTC2544 cells (clone G); type: cell-based; details: 30 min, no TNFα, mean ± s.e.m, at least 4 experiments
Protocol: as §1
To measure JNK activity, cells were stimulated as appropriate and the reaction terminated by rapid aspiration and the addition of ice-cold PBS. The cells were solubilised in 20 mM HEPES buffer, pH 7.7, containing 50 mM NaCl, 0.1 mM EDTA, 0.1 mM Na3VO4, 0.1 mM PMSF, 10 mg/ml aprotinin, 10 mg/ml leupeptin, and 1% (w/v) Triton X-100. Lysates were clarified by centrifugation for 5 min at 13,000 rpm and equal amounts of protein were incubated with 20 μg of GST-c-Jun-(5–89) immobilized on glutathione-Sepharose at 4 °C for 3 h. […] Phosphorylation of GST-c-Jun was then determined by autoradiography. […]
as §5

CN(C)CCCn1cc(C2=C(c3c[nH]c4ccccc34)C(=O)NC2=O)c2ccccc21 [GF109203X]
reversal of PAR2 mediated inhibition of JNK activity by PKC inhibitor ([1]; GF109203X 10 μM (maximal concentration), trypsin 30 nM or SLIGKV-OH, TNFα 10 ng/ml 30 min): reversed the inhibitory effect of trypsin and SLIGKV-OH on TNFα-stimulated JNK activation
reversal of PAR2 mediated JNK inhibition by PKC inhibitor, general statement ([1]; abstract / discussion): the effects of both agents were reversed; also recorded: good reversal of PAR2 mediated inhibition
reversal of PMA effect on TNFα-stimulated JNK activity ([1]; micromolar concentrations GF109203X 30 min, 100 nM PMA 30 min, TNFα 10 ng/ml 30 min): reversed by micromolar concentrations
reversal of PAR2 mediated inhibition of JNK phosphorylation by PKC inhibitor [2]: reversed the inhibitory effect
reversal of PAR2 mediated disruption of TNFR1/TRADD complex ([3]; 100 nM YM254890 or 3 μM GF109203X 30 min, peptide 100 μM 30 min): effectively reversed PAR2 mediated disruption
PKC isoform inhibition ([4]; ref [40–42]): block both Ca^2+-dependent and some novel PKC isoforms

trypsin
effect on TNFα-stimulated JNK activity ([5]; pre-incubation 30 min, TNFα 10 ng/ml 30 min): strongly inhibited both the phosphorylation and activity of JNK; also recorded: concentration-dependent inhibition of subsequent TNFα-stimulated JNK activity; also recorded: strongly mediate an inhibition of TNFα mediated JNK signalling
effect on TNFα-stimulated JNK phosphorylation [6]: strongly inhibited both the phosphorylation and activity of JNK
JNK activity on PAR2 activation [7]: increase in JNK activity

Cn1c2ccccc2c2c3c(c4c5ccccc5n(CCC#N)c4c21)CNC3=O [Go6976]
effect of classical PKC inhibitor on PAR2 mediated JNK inhibition ([1]; not shown): without effect
PKC isoform preference ([4]; no reference given): preferentially inhibits the classical group of PKC isoforms

CC(C)NCC(O)COc1cccc2ccccc12 (stereo not drawn) [propranolol]
cAMP accumulation, functional behaviour [8]: inverse agonist
ERK activation, functional behaviour [9]: partial agonist

tumour necrosis factor-α [TNFα]
TRADD recovery with TNFR1 on stimulation ([3]; versus basal): marked increase in both TRADD and RIP recovery
RIP recovery with TNFR1 on stimulation [10]: marked increase in both TRADD and RIP recovery
ERK activation [11]: negligible
TNFα stimulation of JNK phosphorylation and activity [12]: stimulated JNK phosphorylation and activity as expected

CC[C@H](C)[C@H](NC(=O)[C@H](CC(C)C)NC(=O)[C@@H](N)CO)C(=O)NCC(=O)N[C@@H](CCCCN)C(=O)N[C@H](C(=O)O)C(C)C [SLIGKV-OH] (H-SLIGKV-OH)
IC50 ([5]; 30 min pre-incubation, then TNFα 30 min, densitometry, mean ± s.e.m, at least 4 experiments, read-out: IC50, inhibition of TNFα-stimulated JNK activity): 6.24 ± 1.32 µM
% inhibition of TNFα-stimulated JNK activity ([5]; 30 min pre-incubation, then TNFα 30 min, maximal efficacy comparison, mean ± s.e.m, at least 4 experiments): 93.567 ± 6.882%
EC50 ([13]; densitometry, read-out: EC50, stimulation of JNK activity by peptide alone): 10.1 ± 3.3 µM
% stimulation of JNK activity alone ([13]; maximal efficacy comparison): 43.950 ± 6.482%
